{"source": "paper PMC7819857", "about": "“Identification of Inhibitors of Integrin Cytoplasmic Domain Interactions With Syk” (Frontiers in Immunology, 2021)", "key": {"[1]": {"molecular_target": "T1, integrin β1A cytoplasmic domain : GST-Syk(6-370) (Homo sapiens, UniProt P43405)", "T1 construct": "made in house; host or cells: E. coli BL21(DE3)", "assay": "AlphaScreen of integrin β1A cytoplasmic domain binding to Syk", "settings": "read-out: antagonist activity against β1 (value without measure name), AlphaScreen", "method": "The following HTS assay was developed to identify antagonists of the interaction between the integrin β3 cytoplasmic domain and the non-receptor tyrosine kinase Syk. […] ( Figure 1E ). Background signals in this assay were determined by omitting the integrin β3 peptide. Specific assay conditions are described in Table 1 . […] Then, either dimethyl sulfoxide control or compound was added, followed by biotinylated β3 peptide, and avidin-coated AlphaScreen donor beads. After a 4-h incubation period at room temperature (while protected from light), assays plates were read on an Infinite M1000 (Tecan) multiplate reader (Ex. 680/30; Em. 570/100).\nFigure 4 Ceftazidime inhibition of integrin signaling. (A) Dose-response curves comparing ceftazidime antagonist activity against integrin β1A, β2, and β3 cytoplasmic domains binding to Syk as measured in AlphaScreen assays. […] Data are expressed as mean fluorescence (Fl520) ± the range from duplicate determinations. One of three experiments is shown. (B) Flow cytometric analysis of integrin α4β1, β2 subunit, αVβ3, and FcγRI (CD64) on THP-1 cells. Isotype control staining is shown as light gray histograms. Specific integrin staining is shown as darker gray histograms. […] One representative blot is shown (top), along with quantification of three separate experiments normalized to maximum Syk phosphorylation (bottom). Results are expressed as the mean ± SEM."}, "[2]": {"molecular_target": "T2, GST-free Syk(6-370) (Homo sapiens, UniProt P43405)", "T2 construct": "Syk 6-370 (GST tag removed by thrombin cleavage) was used; GST (N, cleaved yes); made in house; host or cells: E. coli BL21(DE3)", "assay": "Thermal denaturation assay (SYPRO orange)", "format": "binding", "settings": "Syk(6-370) 2 µM, dose-dependent", "method": "In this assay, Syk 6-370 (GST tag removed by thrombin cleavage) was used. Thrombin (GE Healthcare cat#270846, reconstituted in PBS to 1 unit/ul) was applied to the GST-Syk 6-370 protein bound to the Glutathione Sepharose beads. The GST-tag was cleaved with 20 unit/1 ml of protein-GST beads in PBS overnight at room temperature. After chromatography and additional cleaning on GST-beads, the purified protein was verified by SDS-PAGE. For thermal denaturation experiments, GST-free Syk(6-370) was used at a final concentration of 2 µM and SYPRO orange (Thermo Scientific, cat# S6650) at a 0.08% (v/v) dilution (from a 5000x stock). Compounds were used at indicated concentrations. Numerous reaction buffers were initially screened, and a final buffer containing 25 mM HEPES (pH 7.5) with 100 mM NaCl was used. Assays were performed in 20 µl volumes, in triplicate, in 384-well plates (Applied Biosystems MicroAmp 384-well clear optical reaction plate, catalogue #4483285). Plates were sealed with Applied Biosystems Optical Adhesive Cover (cat#4360954) and centrifuged for 2 min at 800 × g at room temperature. Thermal denaturation was measured on a Quant Studio 6 Flex Real-time PCR system (Applied Biosystems). […]"}, "[3]": {"molecular_target": "T3, wild-type full-length Syk : integrin β3 cytoplasmic domain (Homo sapiens, UniProt P43405)", "T3 construct": "endogenous in cells; host or cells: THP-1 whole cell lysate", "assay": "Peptide affinity pull-down of Syk from THP-1 whole cell lysate on β3 peptide beads", "format": "binding", "settings": "bβ3(fl) on neutravidin agarose beads, western blot", "method": "THP-1 cells were washed in PIPES buffer (10 mM PIPES, 50 mM NaCl pH 6.8) and resuspended at 10 × 10^6 cells/ml in PIPES lysis buffer [PIPES buffer containing 1% Triton X-100, 1 mM EDTA, 1 mM Na3VO4, 50 mM NaF, 150 mM sucrose, protease inhibitors (cOmplete, Mini, EDTA-free Protease Inhibitor Cocktail, Roche, cat#11836170001)] and 0.1 mM N-ethylmaleimide. The cells were incubated overnight in lysis buffer at 4°C with end-over-end rotation. Lysates were then passed through a 21-gauge needle and centrifuged at 13,000 × g for 30 min at 4°C. Lysate protein concentrations were determined by using Quick Start Bradford Dye reagent (BioRad cat#5000202). […] Eluted samples were run on SDS-PAGE (4–20%, BioRad, cat# 4561093) and immunoblotted for Syk using anti-Syk antibody at 1:1,000 (4D10; SantaCruz) dilution followed by GAM-HRP at 1:5,000 and detected with SuperSignal West Pico (Thermo Scientific, cat# 34580). Western blots were scanned, and band intensity was measured using ImageJ ([31]) to compare and determine the effect of the drug on Syk/β3 binding. […]\nFigure 3 Dose-response curves in primary and orthogonal screens. […] Data are expressed as mean fluorescence (Fl520) ± range from duplicates, and one representative experiment of “n” performed is shown. […] Data are expressed as mean abs450 ± SEM from triplicate determinations, and one of three representative experiments is shown. […]"}}, "data": [{"smiles": "CC(C)(O/N=C(\\C(=O)N[C@@H]1C(=O)N2C(C(=O)[O-])=C(C[n+]3ccccc3)CS[C@H]12)c1csc(N)n1)C(=O)O", "note": "[ceftazidime]", "values": [{"measurement": "IC50", "setting": "[1]", "value": "1620 ± 410", "unit": "nM"}, {"measurement": "effect on melting temperature (Tm) of Syk(6-370)", "setting": "[2]", "value": "decreased"}, {"measurement": "inhibition of wild-type Syk interaction with integrin β3 cytoplasmic domains", "setting": "[3]", "value": "inhibited"}]}]}
